Results: patent US20090246208A1, “METHODS FOR PREVENTING AND TREATING CANCER METASTASIS AND BONE LOSS ASSOCIATED WITH CANCER METASTASIS” (Novartis AG, priority 2006, published 2009)

B1: M-CSF (Q20A, V78K): double mutant of M-CSF testing solvent accessible residues in the central portion of helices A and C (protein, UniProt P09603 33-554, looked up, variant Q20A V78K)
Macrophage colony-stimulating …: EEVSEYCSHMIGSGHLQSLARLIDSQMETSCQITFEFVDQEQLKDPVCYLKKAFLLVQDIMEDTMRFRDNTPNAIAIKQLQELSLRLKSCFTKDYEEHDKACVRTFYETPLQLLEKVKNVFNETKNLLDKDWNIFSKNCNNSFAECSSQDVVTKPDCNCLYPKAIPSSDPASVSPHQPLAPSMAPVAGLTWEDSEGTEGSSLLPGEQPLHTVDPGSAKQRPPRSTCQSFEPPETPVVKDSTIGGSPQPRPSVGAFNPGMEDILDSAMGTNWVPEEASGEASEIPVPQGTELSPSRPGGGSMQTEPARPSNFLSASSPLPASAKGQQPADVTGTALPRVGPVRPTGQDWNHTPQKTDHPSALLRDPPEPGSPRISSLRPQGLSNPSTLSAQPQLSRSHSSGSVLPLGELEGRRSTRDRRSPAEPEGGPASEGAARPLPRFNSVPLTDTGHERQSEGSFSPQLQESVFHLLVPSVILVLLAVGGLLFYRWRRRSHQEPQRADSPLEQPEGSPLTQDDRQVELPV

How the values were obtained:
[1] = tested on: osteoclasts differentiated from human bone marrow CD34+ cells; assay: Differentiated osteoclast activity, OsteoLyse Assay Kit (Human Collagen) (FIGS. 18, 19); type: cell-based; settings: added on day 15, supernatant sampled on day 17
Experimental: The human bone marrow CD34+ cells (Biowhittaker catalog number 2M-101 A, 3×10^5 cells/vial) were induced to differentiate into osteoclasts under the experimental conditions described here. On Day 1, CD34+ cells were thawed from one frozen vial into 10 ml of media (Alpha MEM with 10% FCS, 1×Pen Strep and 1×fungizone) The cells were washed once and re-suspended in 2 ml of media and plate into onto the OsteoLyse plate (OsteoLyse™ Assay Kit (Human Collagen), Cambrex) at 100 ul per well. On day 2, without removing the original media, add to each well 50 ul of 4×CSF-1 to 30 ng/ml final concentration and 50 ul of 4×RANKL (sRANKL, Chemicon catalog #GF091, 10 ug/package) to final concentration of 100 ng/ml. On day 7, add to each well 50 ul of 5×RANKL to final concentration of 100 ng/ml. On day 15, antibodies (either Chir-RX1 or control antibody) or Zometa were added at the indicated concentrations. On day 17, 10 ul of supernatant of the cell culture was sampled and mixed with 200 μl of Fluorophore Releasing Reagent in each well of the black 96-well assay plate (included in the OsteoLyse Assay Kit).

MDA-MB-231Luc cells = assay: Combination study: intratibial MDA-MB-231Luc cells in Nu/Nu mice, Faxitron x-ray osteolysis scoring (FIGS. 15-17); type: in vivo
Experimental: Two weeks after intratibial inoculation of 6×10^5 MDA-MB-231Luc cells, Nu/Nu mice were treated with 5A1/5B4 (10 mg/kg once weekly), Zometa (0.03 mg/kg twice weekly) or both antibody and bisphosphonate. Bone lesions were monitored weekly by Faxitron analysis (x-ray technology), and at the end of the study, all animals were subjected to a final x-ray, and the images collected and distributed for scoring of the severity of lesions.
Mean osteolysis scores were calculated from 1) an average of scores from 3 separate volunteer scorers and 2) a group average (originally 10 animals/group).
Osteolysis score based on x-ray image in last day of study:
(§1) 1=Equivocal or minimal lesion with normal cortex architecture;
(§2) 2=Definite lytic lesion with minimal cortex/architecture disruption
(§3) 3=Large lesion(s) with cortex/Architecture disruption
(§4) 4=Gross destruction with no preserved architecture

[2] = tested on: osteolytic damage caused by tumor growth at the bony site; assay: Zometa dose-response study, osteolysis caused by tumor growth at the bony site (x-ray osteolysis score, FIG. 14); type: in vivo, mice
Text: This Example establishes the dose-dependent, anti-resorptive effects of Zometa (zoledronate) in an animal model (FIG. 14). […] Osteolysis score based on x-ray image in last-day of study (FIG. 14):
as §1, §2, §3, §4

[3] = tested on: M-CSF biological activity; settings: cited from earlier work
MCSF-R = settings: cited from earlier work

Molecule	differentiated osteoclast activity [1]	osteolytic damage caused by tumor growth at the bony site (mean osteolysis scores, FIG. 16) (MDA-MB-231Luc cells; 0.03 mg/kg Zometa, 10 mg/kg anti-MCSF antibody, combination regimen, last day of study)	treating osteolysis (single agents) (MDA-MB-231Luc cells; antibody 10 mg/kg once weekly, Zometa 0.03 mg/kg twice weekly, treatment from two weeks after inoculation)	severity of lesions in representative faxitron images (FIG. 17) (MDA-MB-231Luc cells; compared to untreated animals)	dose response of anti-resorptive effect ([2]; mice treated with increasing concentrations of Zometa)	osteolytic damage caused by tumor growth at the bony site (osteolysis score based on x-ray image) ([2]; ≧0.03 mg/kg Zometa, last day of study, FIG. 14)	biological activity, lower than native M-CSF [3]	receptor-binding activity (MCSF-R)
O=P(O)(O)C(O)(Cn1ccnc1)P(=O)(O)O [Zometa, zoledronate]	inhibits differentiated osteoclast activity in a dose-dependent manner	inhibited the osteolytic damage	effective in treating osteolysis	relatively minor lesions	a dose response effect was observed	inhibited the osteolytic damage		
B1							8-10 fold	correspondingly lower
